# According to PubChem BioAssay (NCI):
#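 Step 1: Grow cells in 96-well plates. Step 2: Expose to compound for 48 hours at 5 concentrations. Step 3: Interpolate endpoints linearly; if unreached, use highest concentration. GI50: concentration for 50% inhibition of growth. TGI is the concentration that stops growth completely.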
# Experiments:
# Assay in all cases: NCI anticancer screen, dose series, 48 h
# SK-MEL-5 melanoma = tested on: SK-MEL-5 melanoma
# BT-549 breast = tested on: BT-549 breast
# TK-10 renal = tested on: TK-10 renal
# NCI-H23 lung = tested on: NCI-H23 lung
# SR leukemia = tested on: SR leukemia
# CAKI-1 renal = tested on: CAKI-1 renal
# M14 melanoma = tested on: M14 melanoma
# HCT-15 colon = tested on: HCT-15 colon
# SF-295 CNS = tested on: SF-295 CNS
# CCRF-CEM leukemia = tested on: CCRF-CEM leukemia
# SW-620 colon = tested on: SW-620 colon
# A498 renal = tested on: A498 renal
# UACC-62 melanoma = tested on: UACC-62 melanoma
# SF-268 CNS = tested on: SF-268 CNS
# UACC-257 melanoma = tested on: UACC-257 melanoma
# MALME-3M melanoma = tested on: MALME-3M melanoma
# MCF7 breast = tested on: MCF7 breast
# KM12 colon = tested on: KM12 colon
# RPMI-8226 leukemia = tested on: RPMI-8226 leukemia
# LOX IMVI melanoma = tested on: LOX IMVI melanoma
# HOP-92 NSCLC = tested on: HOP-92 NSCLC
# K-562 leukemia = tested on: K-562 leukemia
# UO-31 renal = tested on: UO-31 renal
# NCI-H226 lung = tested on: NCI-H226 lung
# SF-539 CNS = tested on: SF-539 CNS
# IGROV1 ovarian = tested on: IGROV1 ovarian
# U251 CNS = tested on: U251 CNS
# SN12C renal = tested on: SN12C renal
# HOP-62 NSCLC = tested on: HOP-62 NSCLC
# COLO 205 colon = tested on: COLO 205 colon
# SK-OV-3 ovarian = tested on: SK-OV-3 ovarian
# ACHN renal = tested on: ACHN renal
# RXF 393 renal = tested on: RXF 393 renal
# A549 NSCLC = tested on: A549 NSCLC
smiles,measurement,setting,value
COc1cc([C@@H]2c3cc4c(cc3C[C@@H]3COC(=O)C32)OCO4)cc(OC)c1O (some centres undefined),TGI,SK-MEL-5 melanoma,1040 nM
same,TGI,BT-549 breast,> 100000 nM
same,TGI,TK-10 renal,> 100000 nM
same,TGI,NCI-H23 lung,> 100000 nM
same,TGI,SR leukemia,50.3 nM
same,TGI,CAKI-1 renal,823 nM
same,TGI,M14 melanoma,> 100000 nM
same,TGI,HCT-15 colon,> 100000 nM
same,TGI,SF-295 CNS,58.5 nM
same,TGI,CCRF-CEM leukemia,52.6 nM
same,TGI,SW-620 colon,> 100000 nM
same,TGI,A498 renal,> 100000 nM
same,TGI,UACC-62 melanoma,> 52100 nM
same,TGI,SF-268 CNS,> 32600 nM
same,TGI,UACC-257 melanoma,> 100000 nM
same,TGI,MALME-3M melanoma,70 nM
same,TGI,MCF7 breast,71 nM
same,TGI,KM12 colon,> 100000 nM
same,TGI,RPMI-8226 leukemia,137 nM
same,TGI,LOX IMVI melanoma,15700 nM
same,TGI,HOP-92 NSCLC,34900 nM
same,TGI,K-562 leukemia,> 100000 nM
same,TGI,UO-31 renal,> 100000 nM
same,TGI,NCI-H226 lung,> 59900 nM
same,TGI,SF-539 CNS,44.3 nM
same,TGI,IGROV1 ovarian,79.1 nM
same,TGI,U251 CNS,> 100000 nM
same,TGI,SN12C renal,> 77400 nM
same,TGI,HOP-62 NSCLC,24300 nM
same,TGI,COLO 205 colon,93.3 nM
same,TGI,SK-OV-3 ovarian,2470 nM
same,TGI,ACHN renal,23500 nM
same,TGI,RXF 393 renal,63.5 nM
same,TGI,A549 NSCLC,> 93400 nM
COc1ccc(-c2ccc(-c3ccc(C(=N)N)s3)s2)cc1Cl,GI50,SK-MEL-5 melanoma,1880 nM
same,TGI,SK-MEL-5 melanoma,3520 nM
same,GI50,SR leukemia,299 nM
same,TGI,SR leukemia,1340 nM
same,GI50,SF-295 CNS,1800 nM
same,TGI,SF-295 CNS,3300 nM
same,GI50,CCRF-CEM leukemia,1810 nM
same,TGI,CCRF-CEM leukemia,4720 nM
same,GI50,A498 renal,1290 nM
same,TGI,A498 renal,2600 nM
